The results in this text go back to patent publication US20020128301A1, “Non-nucleoside reverse transcriptase inhibitors” (priority 1998, published 2002).

The nature of this data set: Bioavailability: release of the mother compound of Formula P-2 from orally administered prodrugs in rats, plasma assayed by HPLC. Particulars: oral, propylene glycol vehicle, fasted male Sprague Dawley rats, dose corresponding to […]; released drug (1S,2S)-N-[cis-2-(6-fluoro-2-hydroxy-3-propionylphenyl)cyclopropyl]-N'-[2-(5-cyanopyridyl)]urea measured in plasma.

SMILES strings stand for the structures.

Description: At 30, 60, 120, 240 & 360 minutes, 0.2 ml blood were collected, centrifuged and frozen for later analysis. […] Aliquots comprising 40-100 μl of each plasma sample are mixed with an equal volume of acetonitrile (10 seconds, Vibrofex). The sample is centrifuged (2 min, 14000 RPM) and 30 μl the supernatant is injected into an HPLC system, as follows.

With `CCC(=O)c1ccc(F)c([C@@H]2C[C@@H]2NC(=O)Nc2ccc(C#N)cn2)c1OCOC(=O)OC(COC(=O)[C@@H](N)C(C)C)COC(=O)[C@@H](N)C(C)C` (relative stereo) [Example 6], the “Bioavailability 0-6 hours” value is 50%.

As for `CCC(=O)c1ccc(F)c([C@@H]2C[C@@H]2NC(=O)Nc2ccc(C#N)cn2)c1OCOC(=O)[C@@H](N)[C@@H](C)CC` (relative stereo) [Example 1, (1S, 2S)-N-{cis-2-[6-fluoro-2-(L-isoleucyloxymethyloxy)-3-propionylphenyl]cyclopropyl}-N′-[2-(5-cyanopyridyl)]urea], the “Bioavailability 0-6 hours” value worked out at 34%.

For the compound `CCC(=O)c1ccc(F)c([C@@H]2C[C@@H]2NC(=O)Nc2ccc(C#N)cn2)c1OC(=O)OCOC(=O)[C@@H](N)C(C)C` (relative stereo) [Example 7, (1S,2S)-N-[cis-2-(6-fluoro-2-(L-valyloxy)methoxycarbonyloxy-3-propionylphenyl)cyclopropyl]-N′-[2-(5-cyanopyridyl)]urea], the “Bioavailability 0-6 hours” value was found to be 70%.
